Results: US12478624B2, “Heterocyclic derivatives, pharmaceutical compositions and their use in the treatment or amelioration of cancer” (Tolremo Therapeutics AG, priority 2019, dated 2025)

What was measured:
A375 cells = assay: Assay 1: A375 cells treated with S1152, S1008 and compound, immunofluorescence (sc-365823) signal; assay type: cell-based; settings: 1 μM S1152 + 0.5 μM S1008, one day
In short: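 A375 cells treated one day with 1 μM S1152, 0.5 μM S1008 and compound dose ranges in DMEM/10% FCS, then fixed, permeabilised and immunostained. Green signal normalised to nuclear counterstain (ethidium-type or DAPI), log ratio fitted by four-parameter regression for EC50.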

CBP Bromodomain = target: T1, CBP Bromodomain (Homo sapiens, UniProt Q92793); assay: Assay 3: CBP bromodomain binding assay (TR-FRET)
T1 construct: purchased Cayman chemicals 600850
T1 sequence (Q92793 1085-1192 limits assumed): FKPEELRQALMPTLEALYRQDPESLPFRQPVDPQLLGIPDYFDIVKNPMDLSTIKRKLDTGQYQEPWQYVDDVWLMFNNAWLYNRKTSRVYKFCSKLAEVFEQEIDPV
Procedure: Assay 3 CBP Bromodomain Binding Assay (TR-FRET)
Compounds solutions of 10 mM in DMSO were pre-diluted in DSMO to 25× stock solutions in DMSO. These were then diluted down to 4× in assay buffer. A dilution series in assay buffer was performed keeping the DMSO concentration stable. 5 μl compound in assay buffer was transferred into the assay plate (provided by assay kit) and the TR-FRET assay Cayman chemicals; 600850) was performed using the manufactor's instructions. After 1 hour incubation at room temperature in the darks, assay plates were read in a Tecan M1000 plate reader or a Tecan Spaks reader using the TR-FRET mode (top read; excitation 340 nm bandwidth […]; emission 620 nm bandwidth […]; gain optimal determined for the first well, number of flashes: 5; flash frequency 100 Hz; integration time: 500 μs, lag time: 100 μs, room temperature). The TR-FRET ratio was calculated by deviding 670 nm emission by 620 nm emission. Values were log transformed and non-linear regression with variable slope (4 parameters) was used to fit values to a dose-response curve to evaluate EC50 values.

OPM-2 = assay: Assay 2: multiple myeloma cellular efficacy, PrestoBlue cell proliferation/survival; assay type: cell-based; settings: Homo sapiens, 96 h, OPM-2 cells, 4 days
In short: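 Cells seeded at 10000/well and exposed to a compound dose range or vehicle for 4 days, then stained with PrestoBlue for 2 h at 37 °C. Fluorescence was background-subtracted and normalized to vehicle; EC50 came from a four-parameter variable-slope fit against log concentration.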

Row | EC50 (A375 cells) [nM] | EC50 (CBP Bromodomain) [nM] | SMILES | EC50 (OPM-2) [nM]
1 | < 200 | 200 to 1000 | CC(=O)N1C[C@H](c2nc(Nc3ccc4[nH]ncc4c3)cc(-c3cccnc3)n2)CC[C@@H]1C [Compound 00030, 1-((2S,5R)-5-(4-((1H-indazol-5-yl)amino)-6-(pyridin-3-yl)pyrimidin-2-yl)-2-methylpiperidin-1-yl)ethan-1-one] | 
2 | 1000 to 10000 | 1000 to 10000 | CC(=O)N1C[C@H](c2nc(Nc3ccccc3)cc(-n3cnc(C)c3)n2)CC[C@@H]1C [Compound 00163, 1-((2S,5R)-2-methyl-5-(4-(4-methyl-1H-imidazol-1-yl)-6-(phenylamino)pyrimidin-2-yl)piperidin-1-yl)ethan-1-one] | 
3 | < 200 | 200 to 1000 | CC(=O)N1C[C@H](c2nc(Nc3cccc4[nH]ncc34)cc(-c3cccnc3)n2)CC[C@@H]1C [Compound 00042, 1-((2S,5R)-5-(4-((1H-indazol-4-yl)amino)-6-(pyridin-3-yl)pyrimidin-2-yl)-2-methylpiperidin-1-yl)ethan-1-one] | 
4 | 1000 to 10000 | 1000 to 10000 | C[C@H]1CC[C@@H](c2nc(Nc3cccc(F)c3)cc(-c3cccnc3)n2)CN1C(N)=O [Compound 00165, (2S,5R)-5-(4-((3-fluorophenyl)amino)-6-(pyridin-3-yl)pyrimidin-2-yl)-2-methylpiperidine-1-carboxamide] | 
5 |  | < 200 | CC(=O)N1C[C@H](c2nc(Nc3ccnc(C)c3)cc(-c3cnccn3)n2)CC[C@@H]1C [Compound 00126, 1-((2S,5R)-2-methyl-5-(4-((2-methylpyridin-4-yl)amino)-6-(pyrazin-2-yl)pyrimidin-2-yl)piperidin-1-yl)ethan-1-one] | 
6 | < 200 | < 200 | CC(=O)N1C[C@H](c2nc(Nc3cc(F)c4cn[nH]c4c3)cc(-c3cccnc3)n2)CC[C@@H]1C [Compound 00040, 1-((2S,5R)-5-(4-((4-fluoro-1H-indazol-6-yl)amino)-6-(pyridin-3-yl)pyrimidin-2-yl)-2-methylpiperidin-1-yl)ethan-1-one] | 
7 | < 200 | < 200 | CC(=O)N1C[C@H](c2nc(Nc3cc(F)cc(-c4cnn(C)c4)c3)cc(-c3cccnc3)n2)CC[C@@H]1C [Compound 00043, 1-((2S,5R)-5-(4-((3-fluoro-5-(1-methyl-1H-pyrazol-4-yl)phenyl)amino)-6-(pyridin-3-yl)pyrimidin-2-yl)-2-methylpiperidin-1-yl)ethan-1-one] | 
8 | 200 to 1000 | 200 to 1000 | CC(=O)N1C[C@H](c2nc(Nc3cc(F)cc(C(=O)N(C)C)c3)cc(-c3cccnc3)n2)CC[C@@H]1C [Compound 00038, 3-((2-((3R,6S)-1-acetyl-6-methylpiperidin-3-yl)-6-(pyridin3-yl)pyrimidin-4-yl)amino)-5-fluoro-N,N-dimethylbenzamide] | 
9 | < 200 |  | COc1cc(F)cc(Nc2cc(-c3cnccn3)nc([C@@H]3CC[C@H](C)N(C(C)=O)C3)n2)c1 [Compound 00067, 1-((2S,5R)-5-(4-((3-fluoro-5-methoxyphenyl)amino)-6-(pyrazin-2-yl)pyrimidin-2-yl)-2-methylpiperidin-1-yl)ethan-1-one] | < 200
10 | < 200 |  | CC(=O)N1C[C@H](c2nc(Nc3cccc4c3cnn4C)cc(-c3cccnc3)n2)CC[C@@H]1C [Compound 00056, 1-((2S,5R)-2-methyl-5-(4-((1-methyl-1H-indazol-4-yl)amino)-6-(pyridin-3-yl)pyrimidin-2-yl)piperidin-1-yl)ethan-1-one] | < 200
11 | < 200 |  | CC(=O)N1C[C@H](c2nc(Nc3cccc(-c4nnco4)c3)cc(-c3cccnc3)n2)CC[C@@H]1C [Compound 00141, 1-((2S,5R)-5-(4-((3-(1,3,4-oxadiazol-2-yl)phenyl)amino)-6-(pyridin-3-yl)pyrimidin-2-yl)-2-methylpiperidin-1-yl)ethan-1-one] | < 200
12 | < 200 |  | CC(=O)N1C[C@H](c2nc(Nc3ccnc(C)c3)cc(-c3cncc(OC(F)F)c3)n2)CC[C@@H]1C [Compound 00111, 1-((2S,5R)-5-(4-(5-(difluoromethoxy)pyridin3-yl)-6-((2-methylpyridin4-yl)amino)pyrimidin-2-yl)-2-methylpiperidin-1-yl)ethan-1-one] | 200 to 1000
13 | < 200 |  | CC(=O)N1C[C@H](c2nc(Nc3cccc(NC(=O)C4CC4)c3)cc(-c3cccnc3)n2)CC[C@@H]1C [Compound 00089, N-(3-((2-((3R,6S)-1-acetyl-6-methylpiperidin-3-yl)-6-(pyridin3-yl)pyrimidin-4-yl)amino)phenyl)-cyclopropanecarboxamide] | < 200
14 | 200 to 1000 |  | CC(=O)N1C[C@H](c2nc(-c3cnccn3)cc(N(C)c3ccnc(C)c3)n2)CC[C@@H]1C [Compound 00167, 1-((2S,5R)-2-methyl-5-(4-(methyl(2-methylpyridin-4-yl)amino)-6-(pyrazin-2-yl)pyrimidin-2-yl)piperidin-1-yl)ethan-1-one] | 1000 to 10000
15 | < 200 |  | CCn1cc(-c2cc(Nc3cc(-c4cccnc4)nc([C@@H]4CC[C@H](C)N(C(C)=O)C4)n3)ccn2)cn1 [Compound 00158, 1-((2S-5R)-5-(4-((2-(1-ethyl-1H-pyrazol-4-yl)pyridin-4-yl)amino)-6-(pyridin-3-yl)pyrimidin-2-yl)-2-methylpiperidin-1-yl)ethan-1-one] | < 200
16 | < 200 |  | CC(=O)N1C[C@H](c2nc(Nc3cccc(-n4ccc(C)n4)c3)cc(-c3cccnc3)n2)CC[C@@H]1C [Compound 00077, 1-((2S,5R)-2-methyl-5-(4-((3-(3-methyl-1H-pyrazol-1-yl)phenyl)amino)-6-(pyridin-3-yl)pyrimidin-2-yl)piperidin-1-yl)ethan-1-one] | 200 to 1000
17 | < 200 |  | CC(=O)N1C[C@H](c2nc(Nc3cccc(N4CCC4=O)c3)cc(-c3cccnc3)n2)CC[C@@H]1C [Compound 00087, 1-(3-((2-((3R,6S)-1-acetyl-6-methylpiperidin-3-yl)-6-(pyridin-3-yl)pyrimidin-4-yl)amino)phenyl)azetidin-2-one] | 200 to 1000
18 | < 200 |  | CC(=O)N1C[C@H](c2nc(Nc3ccnc(-c4cnn(C)c4)c3)cc(-c3cccnc3)n2)CC[C@@H]1C [Compound 00143, 1-((2S,5R)-2-methyl-5-(4-((2-(1-methyl-1H-pyrazol-4-yl)pyridin-4-yl)amino)-6-(pyridin-3-yl)pyrimidin-2-yl)piperidin-1-yl)ethan-1-one] | < 200
19 | < 200 |  | COc1cncc(-c2cc(Nc3cncc(C)c3)nc([C@@H]3CC[C@H](C)N(C(C)=O)C3)n2)c1 [Compound 00132, 1-((2S,5R)-5-(4-(5-methoxypyridin-3-yl)-6-((5-methylpyridin-3-yl)amino)pyrimidin-2-yl)-2-methylpiperidin-1-yl)ethan-1-one] | < 200
20 | 1000 to 10000 |  | CC(=O)N1C[C@H](c2nc(Nc3ccnc(F)c3)cc(-c3cncc(O)c3)n2)CC[C@@H]1C [Compound 00117, 1-((2S,5R)-5-(4-((2-fluoropyridin-4-yl)amino)-6-(5-hydroxypyridin-3-yl)pyrimidin-2-yl)-2-methylpiperidin-1-yl)ethan-1-one] | 1000 to 10000
21 | < 200 |  | CC(=O)N1C[C@H](c2nc(Nc3ccnc(F)c3)cc(-c3cncc4c3ccn4C)n2)CC[C@@H]1C [Compound 00118, 1-((2S,5R)-5-(4-((2-fluoropyridin-4-yl)amino)-6-(1-methyl-1H-pyrrolo[2,3-c]pyridin-4-yl)pyrimidin-2-yl)-2-methylpiperidin-1-yl)ethan-1-one] | < 200
22 | < 200 |  | CC(=O)N1C[C@H](c2nc(Nc3cc(-c4cnn(C)c4)cc(C(F)F)c3)cc(-c3cccnc3)n2)CC[C@@H]1C [Compound 00057, 1-((2S,5R)-5-(4-((3-(difluoromethyl)-5-(1-methyl-1H-pyrazol-4-yl)phenyl)amino)-6-(pyridin-3-yl)pyrimidin-2-yl)-2-methylpiperidin-1-yl)ethan-1-one] | < 200
23 | < 200 |  | COc1cc(Nc2cc(-c3cnccn3)nc([C@@H]3CC[C@H](C)N(C(C)=O)C3)n2)cc(C)n1 [Compound 00150, 1-((2S,5R)-5-(4-((2-methoxy-6-methylpyridin-4-yl)amino)-6-(pyrazin-2-yl)pyrimidin-2-yl)-2-methylpiperidin-1-yl)ethan-1-one] | < 200
24 | < 200 |  | CC(=O)N1C[C@H](c2nc(Nc3cccc(-c4cn(C)nn4)c3)cc(-c3cnccn3)n2)CC[C@@H]1C [Compound 00068, 1-((2S,5R)-2-methyl-5-(4-((3-(1-methyl-1H-1,2,3-triazol-4-yl)phenyl)amino)-6-(pyrazin-2-yl)pyrimidin-2-yl)piperidin-1-yl)ethan-1-one] | < 200
25 | < 200 |  | CC(=O)N1C[C@H](c2nc(Nc3cc(C)nc(F)c3)cc(-c3cccnc3)n2)CC[C@@H]1C [Compound 00134, 1-((2S,5R)-5-(4-((2-fluoro-6-methylpyridin-4-yl)amino)-6-(pyridin-3-yl)pyrimidin-2-yl)-2-methylpiperidin-1-yl)ethan1-one] | < 200
